The solubility is how much of the substance goes into solution per volume.

Where two headings read alike, the source gives them in different places.

The results in this text go back to patent US11033546B2, “Solubilized compositions for controlled proliferation of stem cells / generating inner ear hair cells using a GSK3 inhibitor: I” (Frequency Therapeutics, Inc., priority 2016, dated 2021).

The nature of data set [1]: Solubility of CHIR99021 diHCl in PBS with or without 17 wt % poloxamer 407, judged by eye and transmitted light microscopy. The format is physicochemical. The note with it: 17 wt % poloxamer 407 in 1×PBS versus 1×PBS alone; 25 mg/ml (supersaturated); pH approximately 7.5; stirred overnight at room temperature. As to the method:
CHIR99021 diHCl was combined with either 1×PBS or 17 wt % poloxamer 407 in 1×PBS at a concentration of 25 mg/ml, which was supersaturated for both solutions. After stirring the mixtures overnight at room temperature, the pH of the PBS buffers was adjusted to a pH of approximately 7.5.

A short description of data set [2]: Solubility of CHIR99021 diHCl in Poloxamer P-407/water solutions under refrigeration. The class given is physicochemical. The settings on record: for solubility at 2 days: aqueous with cosolvent or surfactant or cyclodextrin, thermodynamic from solid, no DMSO or other additives, read-out: CHIR99021 diHCl Conc (solubility). As to the method:
CHIR99021 diHCl was combined with Poloxamer P-407 and water. Samples were prepared ice-cold and allowed to incubate in the refrigerator for 2 days with occasional vortexing.
The solubility results shown below in Table 1 for refrigeration conditions. The only components in the poloxamer solution in the samples were P-407 and water (no DMSO or any other additives). The 20% sample was a gel at room temperature and the 15% sample was syrup, while the 10% and 5% samples were more fluid.

As for `Cc1c[nH]c(-c2cnc(NCCNc3ccc(C#N)cn3)nc2-c2ccc(Cl)cc2Cl)n1` [CHIR99021 diHCl, 6-[[2-[[4-(2,4-Dichlorophenyl)-5-(5-methyl-1H-imidazol-2-yl)-2-pyrimidinyl]amino]ethyl]amino]-3-pyridinecarbonitrile], the “solubility as judged by eye and transmitted light microscopy” value in data set [1] is reported as “appeared more soluble”. Also, the “solubility trend in P-407 solutions” value in data set [2] (5% to 20% P-407 in water) is recorded as “improved solubility with increasing % poloxamer concentration”. Besides, the solubility at 2 days in data set [2] (10% Poloxamer P-407 in water, 10% P-407 in water) is 2.6 µg/mL; in data set [2] (15% Poloxamer P-407 in water, 15% P-407 in water), 7.9 µg/mL; in data set [2] (20% Poloxamer P-407 in water, 20% P-407 in water), 13.5 µg/mL.
